Broadly, the IC50 is the concentration that gives 50% inhibition.

For series [1], the system named is A-375 cells expressing mutant MEK1P124L. In words: ATP-based CTG (Cell Titer Glo) cell viability assay, 72 h. To be noted: Homo sapiens, A-375 MEK1P124L, single agent. On the procedure: (§1) Compound stocks are prepared in DMSO at a final concentration of 10 mM. Working stocks are serially diluted in the appropriate cell culture medium in 3-fold increments to achieve final assay concentrations ranging from 2.7 μM to 1.2 nM.
(§2) A-375 and WM-266-4 cells were purchased from American Type Culture Collection (ATCC). The A-375 cells were cultured in DMEM medium (ATCC) and the WM-266-4 cells were cultured in EMEM medium (ATCC) both supplemented with 10% fetal bovine serum (Gibco) and incubated at 37° C./5% CO2. The cell lines engineered to express commonly occurring alleles indicative of resistance were acquired from Novartis-Emeryville. These resistant models include, A-375 cells expressing mutant MEK1P124L, truncated p61-BRAFV600E, or mutant NRASQ61K, and WM-266-4 cells expressing mutant MEK1C121S, truncated p61-BRAFV600E, or mutant NRASQ61K. These cells were cultured in the appropriate parental medium with selection marker G418 and in the presence of 5 uM LFE158 (MEK mutants) or LIH720 (truncated p61-BRAFV600E).
(§3) For screening, cells were seeded in 80 ul of medium in 384-well plates (Thermo Scientific, cat#4332) at 500 (A-375) or 750 (WM-266-4) cell densities per well using a MultiDrop Combi (Thermo-Fisher) with an 8-channel standard cassette. To promote an even distribution of cells across the entire well, cells were briefly centrifuged at 1000 RPM and incubated at room temperature 30 minutes. All plates were incubated at 37° C., 5% CO2 for 24 h prior to compound addition. Compound stock was freshly prepared in the appropriate culture medium, and added using a PAA robot equipped with a 200n1 pin tool. In a minimum of three replicate wells, single agent and combination effects after 72 hours, were assessed by both quantification of cellular ATP levels via Cell Titer Glo (Promega) according to the manufacturer's protocol and by microscopy imaging. For imaging, cells were fixed to the plates and permeabilized with a solution of 10% PFA, 0.3% TX-100 in PBS via a WellMate dispenser with controlled dispensing speeds. Cell nuclei were stained with Hoechst 33342 (H3570, Invitrogen), and all necessary washing steps were performed by a BioTek washer.
(§4) Data comprised triplicate measurements for each treatment (compound) condition, 42 replicates of DMSO-treated wells, and duplicates of Staurosporin-treated wells. The data was normalized to the median of the DMSO measurements and summarized by calculating the median of the triplicates. Data was imported into Chalice to calculate compound synergies.

Series [2] deals with A-375 cells expressing mutant NRASQ61K. The series is described as above. To be noted: Homo sapiens, A-375 NRASQ61K, single agent. On the procedure: as §1, §2, §3, §4
The subject of series [3] is A-375 cells. The series is described as above. The note with it: Homo sapiens, A-375 parent, single agent. On the procedure: as §1, §2, §3, §4
In series [4] the test system is WM-266-4 cells expressing mutant MEK1C121S. Described as above. The note with it: Homo sapiens, WM-266-4 MEK1C121S, single agent. On the procedure:
as §1, §2, §3, §4

Series [5] deals with WM-266-4 cells. The description is as above. The note with it: Homo sapiens, WM-266-4 parent, single agent. On the procedure:
as §1, §2, §3, §4

Series [6] relates to A-375 cells expressing mutant MEK1P124L. In words: Microscopy imaging assay (viable nuclei count), 72 h. It counts as cell-based. The note with it: Homo sapiens, A-375 MEK1P124L, single agent. On the procedure: as §1, §2, §3
(§5) An automated image analysis pipeline was established using custom-made scripts in the open-source, statistical programming language R, and functions of the BioConductor package EBImage. The goal was to quantify the number of viable nuclei (cells) per well as an approximation for cell viability. The pipeline was comprised of seven steps: (I.) smoothing of the image to reduce the number of intensity peaks, (II.) application of a thresholding function to separate the foreground (signal) from the background (noise), (III.) identification of local maxima in the foreground that serve as seeds for the nuclei, (IV.) filtering of local maxima in close proximity, (V.) propagation of the nuclei from remaining local maxima, (VI.) and extraction of object features from the propagated nuclei (numbers of nuclei, size features and intensity features). As a last step (VII.), to exclude debris (e.g. fragmented nuclei) from counting, objects identified in DMSO- and Staurosporin-treated wells were used to obtain feature distributions for viable and fragmented nuclei, respectively. These were used to set cut-offs differentiating between viable and fragmented nuclei. The number of fragmented nuclei was subtracted from the total number of identified objects and the result was reported as final count for that well.
as §4

Series [7] has as its system A-375 cells expressing mutant NRASQ61K. Described as above. In kind it is cell-based. To be noted: Homo sapiens, A-375 NRASQ61K, single agent. On the procedure: as §1, §2, §3, §5, §4
The test system of series [8] is A-375 cells. The description is as above. In kind it is cell-based. To be noted: Homo sapiens, A-375 parent, single agent. On the procedure: as §1, §2, §3, §5, §4
Series [9] has as its system WM-266-4 cells expressing mutant MEK1C121S. The description is as above. In kind it is cell-based. The note with it: Homo sapiens, WM-266-4 MEK1C121S, single agent. On the procedure: as §1, §2, §3, §5, §4
For series [10], the system named is WM-266-4 cells. The series is described as above. The note with it: Homo sapiens, WM-266-4 parent, single agent. It counts as cell-based. On the procedure:
as §1, §2, §3, §5, §4

Series [11] in a line: Clinical dose finding and tolerability (RP2D/MTD) in patients. To be noted: BID, in combination with B-Raf inhibitor of Formula (I) 600 mg. It counts as in vivo. The text has this:
The selection of the starting dose follows the ICH S9 guidelines for choosing a starting a dose for a first-in-human trial conducted in patients with cancer, and is shown in Table 6-2.
Table 3 describes the starting doses and the provisional dose levels of study treatments for the combinations that may be evaluated during this trial. Additional dose levels not currently specified may be enrolled and additional patients may be enrolled at a dose level already tested if such changes are deemed necessary to provide optimal safety and tolerability, pharmacokinetic, and pharmacodynamic data.

The test system of a further series is CL-34. In words: 72 hr cell titer Glo proliferation assay, BRAFV600E mutant CRC cell lines. It counts as cell-based. To be noted: CL-34, single agent. On the procedure: (§6) Single agent and combinatorial effects on proliferation of inhibitors of RAF (Compound of Formula (I)) and PIK3Ca (Compound X) kinases in seven BRAF-mutant CRC-derived cell lines. All cell lines express the BRAFV600E protein. Cells harboring known or putative activating mutations in the PI3Kα gene are marked with a (*) and cells with PTEN loss marked with a (#). Cell proliferation was measured in 72 hr cell titer Glo™ assays and all results supplied are the result of at least triplicate measurements. Shown are single agent IC50 values for the Compound of Formula (I) and Compound X. Synergy score (SS) measurements as well as the combination index (C150) at the 50% effect level are given for each combination) in Table 6. Interactions were deemed synergistic when SS values were ≥2.0 and CI values were ≤0.5. Interactions were deemed additive/synergistic when either SS values were ≥2.0 but CI values were >0.5 or SS values were <2.0 but CI values were ≤0.5. Interactions where termed additive when SS values were <2.0 and CI values were >0.5. Synergy calls are given in the “effect description” columns.
On the technique in general: Cellular ATP, detected with luciferase, serves as a proxy for viable cell number.

For another series, the system named is COLO 205. Described as above. In kind it is cell-based. To be noted: COLO 205, single agent. On the procedure: as §6
A further series has as its system HT-29. The description is as above. In kind it is cell-based. The note with it: HT-29 (PI3Kα mutation), single agent. On the procedure:
as §6

The subject of another series is LS411N. The description is as above. In kind it is cell-based. The note with it: single agent. On the procedure:
as §6

For a further series, the system named is OUMS-23. Described as above. It counts as cell-based. The note with it: OUMS-23 (PTEN loss), single agent. On the procedure: as §6
The next series deals with RKO. Described as above. It counts as cell-based. To be noted: RKO (PI3Kα mutation), single agent. On the procedure: as §6
The next series relates to SNU-C5. The series is described as above. In kind it is cell-based. To be noted: SNU-C5 (PI3Kα mutation), single agent. On the procedure: as §6
In a further series the test system is SW1417. The description is as above. It counts as cell-based. To be noted: SW1417, single agent. On the procedure: as §6

Turning to `Cn1cnc2c(F)c(Nc3ccc(Br)cc3F)c(C(=O)NOCCO)cc21` [Compound B], the IC50 was above 2700 nM in series [1]; 206 nM in [2]; 51 nM in the series with A-375 cells [3]; 821 nM in [4]; 50 nM in the series on WM-266-4 cells [5]; above 2700 nM in series [6]. Further, the half-maximal inhibitory concentration (IC50) was found to be 150 nM in [7], 57 nM in the series with A-375 cells [8], 1210 nM in series [9] and 77 nM with WM-266-4 cells [10]. Further, the RP2D in series [11] amounted to 45 mg.

With `Cc1nc(NC(=O)N2CCC[C@H]2C(N)=O)sc1-c1ccnc(C(C)(C)C(F)(F)F)c1` [Compound X, (S)-Pyrrolidine-1,2-dicarboxylic acid 2-amide 1-({4-methyl-5-[2-(2,2,2-trifluoro-1,1-dimethyl-ethyl)-pyridin-4-yl]-thiazol-2-yl}-amide)], the IC50 in the series with CL-34, with COLO 205, with HT-29, with LS411N, with OUMS-23 and with RKO was above 2700 nM throughout. The IC50 in the series on SNU-C5 and with SW1417 was above 2700 nM in each case.

The record behind these values is patent US10548894B2, “Combination therapy” (Array BioPharma Inc., priority 2013, dated 2020).
